Measured values as given in article PMC4912613, “A broad analysis of resistance development in the malaria parasite” (Nature Communications, 2016).
Where two headings read alike, the source gives them in different places.

Key:
[1] = system: ATQ-R5 (cytb F267V, parent 3D7); assay: Cross-resistance EC50 assay, ATQ-R5; type: cell-based, Plasmodium falciparum; settings: Plasmodium falciparum, 3D7; SYBR green 72 hour assay; asynchronized parasites; 96-well or 1536-well format; ATQ-R5
Description: (§1) To evaluate potential overlapping activity against known antimalarial drug targets, we performed dose-response studies with each compound against our assembled set of drug-resistant lines and their corresponding parents, in an asexual blood stage proliferation assay (Table 1). Comparisons were made to the drug-sensitive strain 3D7 when a parent was unavailable (TM90C2A, W2 and Dd2). As laboratories conducted EC50 assays with different strains and protocols, all comparisons were made between assays from the same laboratory and under the same assay conditions. Compounds displaying >5-fold EC50 shifts relative to the parent or sensitive strain were flagged as having potentially non-novel targets. Average fold shifts per strain ranged from 0.82 to 2.34, with a median of 1.23 indicating there was not common resistance to any one resistant clone. No resistance patterns were observed when classifying the compounds based on chemical structure, but this was not surprising given the diversity of compounds chosen. On the other hand, given that these confirmed compounds were derived from larger unconfirmed hit lists to which some filtration criteria may have been applied (for example, elimination of obvious dihydrofolate reductase inhibitors[32]), some[10][11][12][13] pre-existing bias may exist in the set. […]
(§2) Alternatively, a SYBR Green-based proliferation approach was used for the 72-h assay, as previously described. Briefly, a culture of either synchronized or asynchronous parasitized RBCs (0.3% parasitemia and 4% haematocrit) in screening medium (identical to supplemented medium above except no serum was added) was exposed to serial drug dilutions. Plates were incubated at 37 °C and gassed with 93% N2, 4% CO2 and 3% O2 for 72 h. Following incubation, 10 × SYBR Green I (Invitrogen; supplied in 10,000 × concentration) in lysis buffer ([…], 5 mM EDTA, 0.16% Saponin wt per vol and 1.6% Triton X vol per vol) was added to the wells and the plates were incubated overnight at room temperature before plate reading. EC50 assays were repeated three times, taking the average EC50 value from each assay set, and removing any outliers using a single iteration of Grubbs' test, eliminating values with z-scores above the critical z-value (α=0.05). The raw EC50 values for synchronized parasites assayed in a 384-well format are listed in Supplementary Data 4. The raw EC50 values for asynchronous parasites assayed in a 96 or 1536-well format are listed in Supplementary Data 5.
(§3) EC50 values for each strain were compared with those of the corresponding parent strain to determine fold-shift changes and identify resistance. To minimize the cause variance between assays, all comparisons were conducted between strains assayed under identical conditions. A one-way ANOVA followed by a Dunnet's post-test was conducted in GraphPad Prism to identify significant changes between the parent and resistant strain.

[2] = system: P. berghei exoerythrocytic forms; assay: Liver-stage P. berghei hepatocyte invasion and development assay (luminescence, HepG2); type: cell-based, Plasmodium berghei; settings: for EC50: Plasmodium berghei; for EC50 fold shift compared to asexual stage: Liver Stage EC50: liver stage EC50 / 3D7 EC50
Description: As drugs that eliminate multiple stages of the parasite lifecycle will be critical components in global efforts to eliminate malaria, we were interested in knowing whether the compounds in our study had additional activities against either the liver and/or transmission stages of the parasite lifecycle. To determine this, we first evaluated the compounds in additional phenotypic assays. The first assay was a P. berghei hepatocyte invasion and development assay, which predicts causal prophylactic activity. Hepatocyte toxicity was additionally tested to identify false-positive activity in the liver stage due to host-cell toxicity. Assays were executed in duplicate using a 12-point EC50 curve at starting concentrations of 5 μM or 50 μM (Supplementary Table 1).
Liver-stage activity was determined by pretreating hepatic human cells (HepG2) for 2 h with compound in 1,536-well plates infected with freshly dissected P. berghei sporozoites. After 48 h of incubation, the viability of P. berghei exoerythrocytic forms was measured by luminescence reaction light output using BrightGlo (Promega). Varying levels of compound concentration were used (5 μM or 50 μM) due to the stock concentration supplied.

[3] = system: DHODH (E182D, parent 3D7); assay: Cross-resistance EC50 assay, DHODH; type: cell-based; settings: Plasmodium falciparum; SYBR green 72 hour assay; synchronized parasites; 384-well format; strain DHODH (3D7 parent)
Description: as §1, §2, §3

[4] = system: TM90C2A (DHFR, folate pathway; compared with 3D7); assay: Cross-resistance EC50 assay, TM90C2A; type: cell-based; settings: Plasmodium falciparum, 48 h, read-out: TM90C2A (3D7 Parent) Average EC50
Description: To evaluate potential overlapping activity against known antimalarial drug targets, we performed dose-response studies with each compound against our assembled set of drug-resistant lines and their corresponding parents, in an asexual blood stage proliferation assay (Table 1). Comparisons were made to the drug-sensitive strain 3D7 when a parent was unavailable (TM90C2A, W2 and Dd2). As laboratories conducted EC50 assays with different strains and protocols, all comparisons were made between assays from the same laboratory and under the same assay conditions. Compounds displaying >5-fold EC50 shifts relative to the parent or sensitive strain were flagged as having potentially non-novel targets. Average fold shifts per strain ranged from 0.82 to 2.34, with a median of 1.23 indicating there was not common resistance to any one resistant clone. No resistance patterns were observed when classifying the compounds based on chemical structure, but this was not surprising given the diversity of compounds chosen. On the other hand, given that these confirmed compounds were derived from larger unconfirmed hit lists to which some filtration criteria may have been applied (for example, elimination of obvious dihydrofolate reductase inhibitors[32]), some[10][11][12][13] pre-existing bias may exist in the set.
The 48-h assay was carried out in a 96-well format following standard methods using the ^3H-hypoxanthine incorporation assay. The raw EC50 values corresponding to this assay can be found in Supplementary Data 3. Briefly, this assay relies on the parasite incorporation of labelled hypoxanthine that is proportional to P. falciparum growth. A culture of parasitized RBCs (0.5% parasitemia with a percentage of ring stage higher than 70% of total parasitemia, 2.0% haematocrit) in RPMI-1640, […] and 5 μM hypoxanthine was exposed to drug serial dilutions. Plates were incubated for 24 h at 37 °C, 5% CO2, 5% O2 and 90% N2. After 24 h of incubation, ^3H-hypoxanthine was added and plates were incubated for an additional 24-h period. After that, parasites were harvested on a glass fibre filter using a TOMTEC Cell Harvester 96. Filters were dried and melt-on scintillator sheets were used to determine the incorporation of ^3H-hypoxanthine. Radioactivity was measured using a microbeta counter. Data were normalized using the incorporation of the positive (parasitized RBCs without drug) and negative (same culture with artesunate at 2 μM) controls. All assays were conducted in triplicate using three independently grown cultures, and EC50 values were determined using the XLfit add-in module for Excel (version 2.3.1) from Grafit (version 5.3.1.3), where parameter h is the assay hill slope, x is the compound concentration and y is the inhibition of growth effect. The XLfit equation is: […]
as §3

[5] = HepG2, 48 h, P. berghei sporozoites, HepG2, 48 h, read-out: Liver Stage EC50

| Structure (SMILES) | EC50 [1] | EC50 [2, 5] | EC50 fold shift compared to asexual stage: Liver Stage EC50 [2] | EC50 [3] | EC50 [4] | EC50 ([2]; HepG2, text values, read-out: Liver stage EC50 (PfLuc EC50)) |
| --- | --- | --- | --- | --- | --- | --- |
| CCCCCCCN(Cc1ccc(OC(C)(C)C(=O)OCC)cc1)C(=O)Nc1ccc(Cl)cc1OCC [MMV021735] | 0.062 µM | 2690 nM | 7.03 | 460 nM | 891 nM |  |
| CN(C)Cc1ccc(-c2cc3c(-c4ccc(CN(C)C)cc4)ccnc3[nH]2)cc1.O=C(O)C(F)(F)F [MMV022224] | 0.358 µM | 801 nM |  | 321 nM | 738 nM |  |
| Nc1ncc(-c2cn[nH]c2)cc1-c1nc2ccc(F)cc2[nH]1 [MMV023367] | 1.53 µM | 611 nM | 2.02 | 414 nM | 445 nM |  |
| CN(C)S(=O)(=O)c1cc(-c2ccc3nccc(-c4cccc(S(N)(=O)=O)c4)c3c2)cnc1N [MMV024038] | 0.878 µM | 10.8 nM | 0.05 | 216 nM | 194 nM | 10 nM |
| Cc1ccc(S(=O)(=O)n2cc(-c3ccnc(N)c3)c3cc(Br)cnc32)cc1 [MMV024114] | 1.72 µM | 5940 nM | 22.40 | 395 nM | 1050 nM |  |
| CNCc1ccc2nc(-c3coc(Cc4cc(Cl)ccc4OCC(C)C)n3)[nH]c2c1.Cl.Cl [MMV026596] | 0.376 µM | 6470 nM | 18.71 | 392 nM | 267 nM |  |
| COc1cc(-c2nc(-c3ccccc3)c(-c3ccccc3)[nH]2)ccc1OCCN(C)C [MMV027496] | 0.302 µM | 3170 nM | 28.59 | 128 nM | 300 nM |  |
| Cc1nc2ccc3ccc(CNc4ccc(C(=O)CC(CCC(=O)O)C(=O)O)cc4)cc3c2c(=O)[nH]1.Cl (stereo not shown) [MMV027634] | 0.13 µM | > 50000 nM | > 2170 | 33 nM | 64 nM |  |
| CC(C)c1cccc(C(NC(=O)C2Cc3ccccc3CN2C(=O)c2cccc(N3CCOCC3)c2)C2CCCC2)c1 (stereo not shown) [MMV028038] | 0.839 µM | 5360 nM | 9.92 | 1270 nM | 287 nM |  |
| O=C(NCC(CCCN1CCC(c2c[nH]c3ccccc23)CC1)c1ccccc1)Nc1ccc(Cl)c(Cl)c1 (stereo not shown) [MMV029272] | 4.49 µM | 1800 nM | 13.22 | 148 nM | 415 nM |  |
| CC(C)(C)OC(=O)N1CCN(c2ccccc2NC(=O)c2cccc(C(F)(F)F)c2Oc2ccc(F)cc2)CC1 [MMV030666] | 0.251 µM | 613 nM | 1.26 | 392 nM | 544 nM |  |
| CC(NCc1ccccc1)c1cc(Cl)ccc1O (stereo not shown) [MMV665789] | 0.29 µM | > 5000 nM | > 4 | 728 nM | 1480 nM |  |
| FC(F)(F)c1cccc(Nc2nc3ccccc3nc2Nc2cccc(C(F)(F)F)c2)c1 [MMV665794] | 0.381 µM | 375 nM |  | 187 nM | 73 nM |  |
| O=C(Nc1ccc(Cl)c(Cl)c1)Nc1ccc(Cl)c(Cl)c1 [MMV665852] | 2.71 µM | 343 nM |  | 1770 nM | 566 nM |  |
| OC(CNC1CCCCC1)Cn1c2ccc(I)cc2c2cc(I)ccc21 (stereo not shown) [MMV665882] | 0.026 µM | 3060 nM | 42.02 | 51 nM | 207 nM |  |
| O=C(Nc1ccccc1O)c1ccc(Oc2cccc(C(=O)Nc3ccccc3O)c2)cc1 [MMV665888] | 0.989 µM | 648 nM | 0.54 | 1020 nM | 1040 nM |  |
| COc1ccc(C(=O)C2CC2c2ccc(Cl)cc2)cc1 (stereo not shown) [MMV665924] | 3.63 µM | > 5000 nM | > 6 | 927 nM | 1600 nM |  |
| CCC(C)NCC(O)(c1ccc(Cl)cc1)c1ccc(Cl)cc1 (stereo not shown) [MMV665928] | 0.074 µM | > 5000 nM | > 10 | 878 nM | 432 nM |  |
| O=C(Nc1ccsc1C(=O)NC1CCCCC1)c1ccc(F)cc1 [MMV665939] | 3.43 µM | > 5000 nM |  | 771 nM | 1350 nM |  |
| Nc1ccc(-c2nc3cc(Cc4ccc5[nH]c(-c6ccc(N)cc6)nc5c4)ccc3[nH]2)cc1 [MMV665943] | 0.042 µM | 5950 nM | 18.84 | 335 nM | 298 nM |  |
| O=C(NC(c1ccccc1)c1ccc2cccnc2c1O)c1ccccc1 (stereo not shown) [MMV666080] | 0.756 µM | 464 nM | 0.55 | 779 nM | 860 nM |  |
| COc1cc(C(=O)ON=C(N)Cc2cccc3ccccc23)cc(OC)c1OC [MMV666687] | 0.914 µM | 21000 nM |  | 1070 nM | 180 nM |  |
| c1cc(-c2cnc3ccc(-c4ccc(N5CCOCC5)cc4)nn23)ccn1 [MMV668311] | 0.029 µM | 2250 nM | 46.90 | 42 nM | 86 nM |  |
| c1cncc(-c2cc(N3CCC(CN4CCOCC4)CC3)nc(-c3ccncc3)n2)c1 [MMV668399] | 0.339 µM | 7040 nM |  | 80 nM | 86 nM |  |
